Data reported in publication PMC6110851, “An Optimized MicroPET Imaging Method for the Distribution and Synergies of Natural Products” (Frontiers in Pharmacology, 2018).

Assays:
[1] = MicroPET biodistribution of [^18F]-GA in mice; type: in vivo
Experimental: The mice were grouped by weight and housed in cages of the climate control room (25°C), with a photoperiod 12:12-h. During feeding, mice were free to access food and water. Mice were fasted for 24 h before the experiment. The mice were anesthetized with 4% isoflurane while preparing for scanning ([Constantinescu et al., 2013b]; [Cui et al., 2017]). Eighteen healthy male Kunming mice, weighing 20 ± 2 g, were divided into three groups, which were control group, once-administered (OA) group and long-term administration (LA) group. In the OA group, 1 h before the administration of [^18F]-GA, the mice were orally treated with PG polysaccharides. In the LA group, the mice were orally given the PG polysaccharides for 7 days, but not before the administration of [^18F]-GA.
Rice received a tail vein injection (8.67 ± 2.14 MBq/μg) of [^18F]-GA and placed in the scanner bed and mouse-imaging room immediately ([Constantinescu et al., 2013b]; [O’Doherty et al., 2017]). Firstly, 2 h PET scanning was performed using an Inveon-dedicated PET scanner. The average delay between injection and starting of PET scanning was 3.5 min. Rice were maintained stable under 4% isoflurane anesthesia throughout scanning. The PET list-mode data were dynamically classified into 23 3D sinograms of span and three ring difference. After Fourier recombination, the data were reconstructed using a 2D ordered-subset expectation maximization algorithm. Random events were excluded before reconstruction. The response of detector is normalized using a component-based approach. All dynamic images were corrected for radioactive decay automatically. The PET images were reconstructed by a cone beam algorithm into 480 × 480 × 632 image arrays. After the reconstruction, images were spatially transformed to match the PET images ([Constantinescu et al., 2013a],[b]).
The reconstruction of the image was performed using the PMOD software (PMOD Technologies). The 3D volumes of interest (VOIs) were drawn manually of the following organs: brain, heart, liver, lungs, kidneys, cortical bone, and gallbladder. The organs were carefully identified and VOIs were drawn as irregular contours on high-resolution PET images obtained from each mouse ([Constantinescu et al., 2013b]; [Garg et al., 2017]). The size of each VOI was less than the actual size of each organ to minimize the effects of PET on adjacent organ spills. The VOIs drawing was verified by a second operator. The VOIs of cortical bone were generated by first using PET image to depict the entire femur bone ([Constantinescu et al., 2013b]). The VOI was transferred to a dynamic PET image and the mean time-activity curve (TAC) of the decay correction was extracted for each target organ ([Constantinescu et al., 2013b]).

[2] = tested on: NF-κB; assay: NF-κB dual luciferase reporter assay in TNF-stimulated HEK 293 T cells; type: cell-based; details: 10 μmol/L, HEK 293T stimulated by TNF-α, P < 0.05
Experimental: The separation process was repeated five times for use in the activity tests. […] After 48 h, radioactive elements had decayed, the residues were stored at 4°C for anti-inflammatory activity tests ([Dong et al., 2013]; [Qingxin et al., 2016]).
HEK 293 T cells were cultured in standard Dulbecco’s modified Eagle’s medium (DMEM; Hyclone) supplemented with 10% fetal bovine serum (FBS; Biological Industries). The cells were placed in 96-well plates at 37°C in an air-CO2 environment (95/5% v/v). Cells were grown to 80–90% confluence and incubated for 12 h in DMEM without FBS. Transfection (20 h) was performed according to the manufacturer’s instructions. HEK 293 T cells were pretreated with drugs 1 h prior to TNF-stimulation (5 ng/mL) for 6 h. Dex (10^-5mol/L) was used as a positive control for NF-κB inhibition. The NF-κB activity was assayed using dual luciferase reporter assay system (Promega) according to the manufacturer’s instructions ([Qingxin et al., 2016]). Antiinflammatory activity was calculated as the ratio of firefly luciferase activity to Renilla luciferase activity (internal control).

Row | SMILES | passage of the blood brain barrier ([1]; mice, concluded from brain concentrations) | concentration in the brain of the mouse ([1]; results obtained from PET) | NF-κB inhibitory effect [2]
1 | CC1(C)[C@@H](O)CC[C@]2(C)[C@H]3C(=O)C=C4[C@@H]5C[C@@](C)(C(=O)O)CC[C@]5(C)CC[C@@]4(C)[C@]3(C)CC[C@@H]12 [GA, Glycyrrhetic acid, reference compound] | could not pass the blood brain barrier | very low, almost undetectable | 
2 | C[C@@H]1C[C@H]2[C@@H]3CCC4=CC(=O)C=C[C@]4(C)[C@@]3(F)[C@@H](O)C[C@]2(C)[C@@]1(O)C(=O)CO [Dex, reference compound] |  |  | significant NF-κB inhibitory effects
